The values below come from US10253023B2, “Heteroaryl compounds as BTK inhibitors and uses thereof” (Merck Patent GmbH, priority 2014, dated 2019).

The structures appear in SMILES notation.

For this experiment, the target named is T1, BTK C481S (Homo sapiens, UniProt Q06187, C481S).
T1 construct: His-TEV-hsBTK(328-659)(C481S) from the Merck Serono Protein Purification Laboratory; His (N); TEV (protease cleavage site) (N)
As to the kind of experiment: Assay B: Microfluidic Off-Chip Mobility Shift Assay against BTK C481S enzyme. It counts as biochemical. The settings on record: His-TEV-hsBTK(328-659)(C481S), 90 min, 25° C. From the text: Assay B: Microfluidic Off-Chip Mobility Shift Assay Protocol for Potency Assessment Against BTK C481S Enzyme The protocol below describes a microfluidic, off-chip mobility shift kinase assay to measure inherent potency of compounds against BTK C481S enzyme. The mechanics of the assay platform are described by the vendor (PerkinElmer, Hopkinton, Mass.) on their website at the following URL: […].com. Briefly, 2.5× stocks of His-TEV-hsBTK(328-659)(C481S) from the Merck Serono Protein Purification Laboratory in Darmstadt, Germany (PCS, […]/234), 1.6×ATP and appropriate […] peptide substrate (FITC-AHA-[…]-NH2; Tufts University Core Facility custom synthesis) were prepared in kinase reaction buffer consisting of 25 mM MgCl2, 0.015% Brij-35 (30%), 100 mM HEPES, pH 7.5, and 10 mM DTT. […] Terminated reactions were monitored at -2 PSI, -3000 V/-700 Volts in a LabChip 3000 plate reader from Caliper Life Sciences, a PerkinElmer Company (Hopkinton, Mass.), and the activity was quantified by laser-induced fluorescence measuring the charge/mass difference between substrate and product resulting from peptide phosphorylation. IC50 and efficacy were determined by plotting log [Inhibitor] vs. % Activity in GeneData Screener (Basel, Switzerland).

T1 sequence (Q06187 328-659 C481S): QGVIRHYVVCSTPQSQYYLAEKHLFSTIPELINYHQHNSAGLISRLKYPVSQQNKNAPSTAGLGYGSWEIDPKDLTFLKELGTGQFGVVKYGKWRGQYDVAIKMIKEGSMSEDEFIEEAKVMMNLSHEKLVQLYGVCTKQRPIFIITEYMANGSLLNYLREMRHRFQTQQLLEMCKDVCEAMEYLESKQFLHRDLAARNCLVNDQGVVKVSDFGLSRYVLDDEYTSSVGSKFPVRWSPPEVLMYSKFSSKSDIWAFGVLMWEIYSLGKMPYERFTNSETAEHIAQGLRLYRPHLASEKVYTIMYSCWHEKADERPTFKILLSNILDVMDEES

Turning to `CC(C)(C)c1noc(C(=O)NCc2ccc(-c3ccnc4[nH]c(-c5cnn(C6COC6)c5)nc34)cc2F)n1` [Example 128], the IC50 is less than 100 nM.
